From patent US5770688A, “Method and composition for the treatment of mammalian HIV infection” (GSF-Forschungszentrum fur Umwelt und Gesundheit GmbH, priority 1989, dated 1998)

Legend:
[1] = test system: KE37-1/111β (HIV-infected T-lymphoma cells); assay: MTT test, growth of HIV infected T-lymphoma cells; format: cell-based
Experimental: The KE37-1 (uninfected) and KE37-1/111β (infected) cell lines discussed below are commercially available from the Dr. Robert Gallows Laboratory of the NIH in the United States of America and grown in a medium of RPMI 1640 (GIBCO) and further supplemented with 10% fetal calf serum which contained approximately 100 units of penicillin, 100 μg streptomycin, and approximately 0.25 μg fungizone (Amphotericin B) per milliliter. The human mesenchymal cell lines LC5 and LC5-HIV, discussed below, are deposited with the Collection De L'Institut Pasteur of Paris, France on Mar. 9, 1989 and given the accession numbers I-842 and I-843, respectively. The LC5 and LC5-HIV cell lines were grown in a medium of RPMI 1640 and supplemented with 10% fetal calf serum.
Referring more particularly to FIGS. 1-4, melittin (Seq. ID NO:1) and its specified analogues were tested for their effect on HIV-infected T-lymphoma cells. In this regard the following cell lines were employed in the testing: KE37-1 (uninfected) and KE37-1/111S (infected with HTLV-111β). These infected cells were incubated for a period of seven days under test conditions at a temperature of 37° C. and in the presence of 5% CO2. A culture medium of RPMI 1640 (GIBCO) was employed and was further supplemented with 10% fetal calf serum which contained approximately 100 units of penicillin, 100μ of streptomycin, and approximately 0.25μ fungizone (Amphotericin B) per milliliter. This equals 1 milliliter of antibiotic-antimycotic solution (GIBCO Catalogue No. 043-05240 per 100 ml. of medium.) After a one week incubation period in the presence of various concentrations of the above-identified substances, which were added fresh daily to the medium, the following tests were carried out with the cultures. A first test was conducted for purposes of determining the relative cell concentration as a function of the number of HIV infected cells present by employing an MTT test. […] The optical density (OD) of the solution was determined at=600 nm. […]

[2] = blood serum levels of melittin after injection; format: in vivo, cats
Experimental: During the experiment it was determined that detectable blood serum levels of melittin (Seq. ID NO:1) of about 5 ng/ml could be detected following an injection of melittin equal to […] a few minutes after injection. […] In vitro data has shown that melittin, after this time interval, is found within the cells where it can be detected in tact for more than 48 hours. The LD50 (lethal dose where 50% of the animals perish) for melittin is not known for cats. In the present experiment, both cats M and G were treated twice weekly with subcutaneous injections over a period of eight weeks. During the first three weeks, each cat received increasing dosages of melittin (Seq. ID NO:1) beginning with a 50 mg/kg bodyweight injection, followed by injections of 100 mg/kg, and then escalating to 150, 225, 375 and 500 mg/kg at the sixth injection. Upon reaching this level, the melittin was administered in a constant dosage of 500 mg/kg twice weekly, for the remaining five weeks. […] The quantitative effect of melittin on FIV replication was determined quantitatively by utilizing FIV-PCR employing nested primers from the gag region. Quantification was based upon the determination of amplified product in identical samples which have been amplified after different cycle times. This is best seen by reference to FIG. 47A. Furthermore, each of the cats were clinically investigated in detail. […]

Gly-Ile-Gly-Ala-Val-Leu-Lys-Val-Leu-Thr-Thr-Gly-Leu-Pro-Ala-Leu-Ile-Ser-Trp-Ile-Lys-Arg-Lys-Arg-Gln-Gln-Amide [melittin]
level of growth of the cells ([1]; 2.5 μg per ml): appears not yet influenced | selective toxicity/growth inhibition of HIV infected cells, in words ([1]; FIGS. 1-4): appears to inhibit the growth of HIV infected cells selectively | concentration toxic to HIV infected cells ([1]; KE37-1/111β, seven days incubation, 10080 min): above 5 μg per ml | disappearance from the serum ([2]; in vivo): disappears quickly from the serum | detectable blood serum levels ([2]; injection equal to 200 mg/kg, a few minutes after injection): about 5 ng/ml
